The test system of assay [1] is C. neoformans ATCC 34664. Kind of assay: Antifungal susceptibility, broth dilution MIC (CLSI M27-A2). Type of assay: cell-based, Cryptococcus neoformans. To be noted: Cryptococcus neoformans, ATCC34664; C. neoformans ATCC 34664; broth dilution, RPMI 1640 with MOPS, 48 hours; read-out: Activity against organisms (MIC50) Cn01. Here is the method: (§1) The compounds of Formula 1 were tested for antifungal activity against Candida albicans, C. glabrata, C. krusei, C. tropicalis, Cryptococcus neoformans, Aspergillus fumigatus, A. niger and Fusarium proliferatum. In vitro evaluation of antifungal activity was performed by determining the minimum inhibitory concentration (MIC) following standard methods (CLSI: Reference method for broth dilution antifungal susceptibility testing of yeasts; Approved standard, second edition M27-A2, 2002; CLSI: Reference method for broth dilution antifungal susceptibility testing of filamentous fungi; Approved standard M38-A, 2002). Anti-fungal susceptibility testing of these anti-fungal compounds was done by broth dilution method using RPMI 1640 medium with MOPS buffer. Known anti-fungal agent fluconazole was used as positive control. End points were determined after 48 hours visually and by using spectrophotometer wherever necessary. Different dilutions were tried and various sets of experiments performed. The activity parameters are enumerated in Table 4.
On the technique in general: Broth dilution looks for growth in wells or tubes with falling amounts of substance.

Assay [2] deals with C. krusei ATCC 6258. The description is as above. Type of assay: cell-based, Candida krusei. To be noted: Pichia kudriavzevii, ATCC6258; C. krusei ATCC 6258; broth dilution, RPMI 1640 with MOPS, 48 hours; read-out: Activity against organisms (MIC50) Ck01. Here is the method: as §1
The subject of assay [3] is C. glabrata ATCC 90030. Described as above. Type of assay: cell-based, Candida glabrata. The following applies: Nakaseomyces glabratus, ATCC90030; C. glabrata ATCC 90030; broth dilution, RPMI 1640 with MOPS, 48 hours; read-out: Activity against organisms (MIC50) Cg01. Here is the method:
as §1

The subject of assay [4] is C. albicans ATCC 24433. The description is as above. Type of assay: cell-based. To be noted: Candida albicans, ATCC24433; C. albicans ATCC 24433; broth dilution, RPMI 1640 with MOPS, 48 hours; read-out: Activity against organisms (MIC50) Ca01. Here is the method:
as §1

Assay [5] has as its system A. niger ATCC 16404. The assay can be described thus: Antifungal susceptibility, broth dilution MIC (CLSI M38-A). Type of assay: cell-based. To be noted: Aspergillus niger, ATCC16404; A. niger ATCC 16404; broth dilution, RPMI 1640 with MOPS, 48 hours; read-out: Activity against organisms (MIC50) An01. Here is the method:
as §1

Assay [6] relates to A. fumigatus ATCC 46645. The assay is described as above. Type of assay: cell-based. To be noted: Aspergillus fumigatus, ATCC46645; A. fumigatus ATCC 46645; broth dilution, RPMI 1640 with MOPS, 48 hours; read-out: Activity against organisms (MIC50) Afm01. Here is the method:
as §1

Assay [7] concerns F. proliferatum ATCC 10052. The assay is described as above. Type of assay: cell-based. To be noted: Fusarium proliferatum, ATCC10052; F. proliferatum ATCC 10052; broth dilution, RPMI 1640 with MOPS, 48 hours; read-out: Activity against organisms (MIC50) Fp01. Here is the method:
as §1

For assay [8], the system named is C. tropicalis ATCC 750. Kind of assay: Antifungal susceptibility, broth dilution MIC (CLSI M27-A2). Type of assay: cell-based, Candida tropicalis. The following applies: Candida tropicalis, ATCC750; C. tropicalis ATCC 750; broth dilution, RPMI 1640 with MOPS, 48 hours; read-out: Activity against organisms (MIC50) Ct01. Here is the method:
as §1

Structures are written as SMILES. Converted amounts (≈) assume the structure as drawn. A value given as a limit tells only on which side of the number the result lay.

Regarding `C#CCOc1ccc(/C=C/C(=O)c2ccc(N3CCN(CCC)CC3)cc2)cc1` [Compound 6A-1, (E)-3-(4-(Prop-2-yn-1-yloxy)phenyl)-1-(4-(4-propylpiperazin-1-yl)phenyl)prop-2-en-1-one], the MIC50 in assay [1], in assay [2], in assay [3], in assay [4], in assay [5] and in assay [6] was over 4 µg/mL throughout. Also, the MIC50 in assay [7] and in assay [8] was over 4 µg/mL in each case.
With `C#CCOc1ccc(/C=C/C(=O)c2ccc(N3CCN(CCCC)CC3)cc2)cc1` [Compound 6A-2], the MIC50 in assay [1], in assay [2], in assay [3], in assay [4], in assay [5] and in assay [6] was over 4 µg/mL throughout. Further, the MIC50 in assay [7] and in assay [8] was over 4 µg/mL throughout.
Regarding `C#CCOc1ccc(/C=C/C(=O)c2ccc(N3CCN(Cc4ccc(OC)cc4)CC3)cc2)cc1` [Compound 6A-4], the MIC50 in assay [1], in assay [2], in assay [3], in assay [4], in assay [5] and in assay [6] was over 8 µg/mL each time. Further, the MIC50 in assay [7] and in assay [8] was over 8 µg/mL each time.
With `OCc1cn(CC(O)(Cn2cncn2)c2ccc(F)cc2F)nn1` (centres unmarked) [Compound 8A-1, 2-(2,4-Difluorophenyl)-1-(4-(hydroxymethyl)-1H-1,2,3-triazol-1-yl)-3-(1H-1,2,4-triazol-1-yl)propan-2-ol], the MIC50 (in general, an inhibitory concentration at the 50% level, which refers to growth in some studies and to a panel of isolates in others) in assay [1] is over 128 µg/mL; in assay [2] it was over 128 µg/mL; in assay [3], 2 µg/mL (≈ 5.95 µM); in assay [4], 32 µg/mL (≈ 95.2 µM); in assay [5], over 128 µg/mL; in assay [6], over 128 µg/mL. For the same compound, the MIC50 in assay [7] and in assay [8] was over 128 µg/mL each time.
Turning to `COc1ccc(/C=C/C(=O)c2ccc(OC)cc2)cc1` [Compound 9A-1], the MIC50 in assay [1], in assay [2], in assay [3], in assay [4], in assay [5] and in assay [6] was over 4 µg/mL each time. Moreover, the MIC50 in assay [7] and in assay [8] was over 4 µg/mL throughout.
Regarding `COc1ccc(/C=C/C(=O)c2ccc(O)cc2)cc1` [Compound 9A-2], the MIC50 in assay [1], in assay [2], in assay [3], in assay [4], in assay [5] and in assay [6] was over 32 µg/mL each time. For the same compound, the MIC50 in assay [7] and in assay [8] was over 32 µg/mL throughout.
In the case of `COc1ccc(C(=O)/C=C/c2ccc(Cl)cc2)cc1` [Compound 9A-3], the MIC50 in assay [1], in assay [2], in assay [3], in assay [4], in assay [5] and in assay [6] was over 4 µg/mL each time. In addition, the MIC50 in assay [7] and in assay [8] was over 4 µg/mL in each case.

(Values after patent US9540350B2, “1-substituted, 4-(substituted phenoxymethyl)-1,2,3-triazole compounds with antifungal properties and methods for preparation thereof” (FDC LIMITED, priority 2013, dated 2017).)
